Test results: ChEMBL document CHEMBL3885881, “DrugMatrix”

Organism: Rattus norvegicus
Assay: DrugMatrix - Regimen: Daily Repeat
Assay type: toxicity, organism-based, Sprague-Dawley
Set-up: regimen Daily Repeat, gender Male, age 6-8 weeks
Conditions: in vivo, po, 1402 mg/kg, route oral GAVAGE, dose level High, vehicle 100 % WATER; for ABSOLUTE BASOPHIL / ABSOLUTE EOSINOPHIL / ABSOLUTE LYMPHOCYTE / ABSOLUTE MONOCYTE / ABSOLUTE SEGMENTED NEUTROPHIL / BASOPHIL / EOSINOPHIL / ERYTHROCYTE COUNT / HEMATOCRIT / HEMOGLOBIN / LEUKOCYTE COUNT / LYMPHOCYTE / MEAN CORPUSCULAR HEMOGLOBIN / MEAN CORPUSCULAR HEMOGLOBIN CONCENTRATION / MEAN CORPUSCULAR VOLUME / MONOCYTE / NEUTROPHIL / NUCLEATED RED BLOOD CELLS / PLATELET COUNT: tissue Blood; for ALANINE AMINOTRANSFERASE / ALBUMIN / ALKALINE PHOSPHATASE / ASPARTATE AMINOTRANSFERASE / BLOOD UREA NITROGEN / CARBON DIOXIDE / CHLORIDE / CHOLESTEROL / CREATINE PHOSPHOKINASE / CREATININE / GLUCOSE / LACTATE DEHYDROGENASE / LIPASE / PHOSPHORUS / POTASSIUM / SODIUM / TOTAL BILIRUBIN / TOTAL PROTEIN / URIC ACID: tissue Plasma

C[C@H](CCC(=O)O)[C@H]1CC[C@H]2[C@@H]3[C@H](O)C[C@@H]4C[C@H](O)CC[C@]4(C)[C@H]3C[C@H](O)[C@]12C [CHOLIC ACID]
ABSOLUTE BASOPHIL (72 h, time 3 day): 0 CELLS/uL | ABSOLUTE EOSINOPHIL (72 h, time 3 day): 95.33 CELLS/uL | ABSOLUTE LYMPHOCYTE (72 h, time 3 day): 13410.67 CELLS/uL | ABSOLUTE MONOCYTE (72 h, time 3 day): 0 CELLS/uL | ABSOLUTE SEGMENTED NEUTROPHIL (72 h, time 3 day): 960.67 CELLS/uL | BASOPHIL (72 h, time 3 day): 0% | EOSINOPHIL (72 h, time 3 day): 0.67% | ERYTHROCYTE COUNT (72 h, time 3 day): 5.62 x10E6/uL | HEMATOCRIT (72 h, time 3 day): 34.5% | HEMOGLOBIN (72 h, time 3 day): 13.7 G/DL | LEUKOCYTE COUNT (72 h, time 3 day): 14.47 x10E3/uL | LYMPHOCYTE (72 h, time 3 day): 92.67% | MEAN CORPUSCULAR HEMOGLOBIN (72 h, time 3 day): 24.47 pg | MEAN CORPUSCULAR HEMOGLOBIN CONCENTRATION (72 h, time 3 day): 39.8 G/DL | MEAN CORPUSCULAR VOLUME (72 h, time 3 day): 61.47 fL | MONOCYTE (72 h, time 3 day): 0% | NEUTROPHIL (72 h, time 3 day): 6.67% | NUCLEATED RED BLOOD CELLS (72 h, time 3 day): 0 /100WBC | PLATELET COUNT (72 h, time 3 day): 1053.33 x10E3/uL | ALANINE AMINOTRANSFERASE (72 h, time 3 day): 55.33 u/L | ALBUMIN (72 h, time 3 day): 4.17 G/DL | ALKALINE PHOSPHATASE (72 h, time 3 day): 359.33 u/L | ASPARTATE AMINOTRANSFERASE (72 h, time 3 day): 84.67 u/L | BLOOD UREA NITROGEN (72 h, time 3 day): 16 mg/dL | CARBON DIOXIDE (72 h, time 3 day): 32 mmol/L | CHLORIDE (72 h, time 3 day): 101.67 MEQ/L | CHOLESTEROL (72 h, time 3 day): 91.33 mg/dL | CREATINE PHOSPHOKINASE (72 h, time 3 day): 224 u/L | CREATININE (72 h, time 3 day): 0.19 mg/dL | GLUCOSE (72 h, time 3 day): 152 mg/dL | LACTATE DEHYDROGENASE (72 h, time 3 day): 124.33 u/L | LIPASE (72 h, time 3 day): 9.67 u/L | PHOSPHORUS (72 h, time 3 day): 12.63 mg/dL | POTASSIUM (72 h, time 3 day): 7.15 MEQ/L | SODIUM (72 h, time 3 day): 144.2 MEQ/L | TOTAL BILIRUBIN (72 h, time 3 day): 0.2 mg/dL | TOTAL PROTEIN (72 h, time 3 day): 5.77 G/DL | URIC ACID (72 h, time 3 day): 1.93 mg/dL | ABSOLUTE BASOPHIL (120 h, time 5 day): 0 CELLS/uL | ABSOLUTE EOSINOPHIL (120 h, time 5 day): 0 CELLS/uL | ABSOLUTE LYMPHOCYTE (120 h, time 5 day): 13701.33 CELLS/uL | ABSOLUTE MONOCYTE (120 h, time 5 day): 565.67 CELLS/uL | ABSOLUTE SEGMENTED NEUTROPHIL (120 h, time 5 day): 1233 CELLS/uL | BASOPHIL (120 h, time 5 day): 0% | EOSINOPHIL (120 h, time 5 day): 0% | ERYTHROCYTE COUNT (120 h, time 5 day): 5.73 x10E6/uL | HEMATOCRIT (120 h, time 5 day): 34.97% | HEMOGLOBIN (120 h, time 5 day): 13.73 G/DL | LEUKOCYTE COUNT (120 h, time 5 day): 15.5 x10E3/uL | LYMPHOCYTE (120 h, time 5 day): 88.67% | MEAN CORPUSCULAR HEMOGLOBIN (120 h, time 5 day): 24 pg | MEAN CORPUSCULAR HEMOGLOBIN CONCENTRATION (120 h, time 5 day): 39.3 G/DL | MEAN CORPUSCULAR VOLUME (120 h, time 5 day): 60.97 fL | MONOCYTE (120 h, time 5 day): 3.67% | NEUTROPHIL (120 h, time 5 day): 7.67% | NUCLEATED RED BLOOD CELLS (120 h, time 5 day): 0.67 /100WBC | PLATELET COUNT (120 h, time 5 day): 1207 x10E3/uL | ALANINE AMINOTRANSFERASE (120 h, time 5 day): 112 u/L | ALBUMIN (120 h, time 5 day): 4.27 G/DL | ALKALINE PHOSPHATASE (120 h, time 5 day): 330 u/L | ASPARTATE AMINOTRANSFERASE (120 h, time 5 day): 171 u/L | BLOOD UREA NITROGEN (120 h, time 5 day): 16.33 mg/dL | CARBON DIOXIDE (120 h, time 5 day): 30.33 mmol/L | CHLORIDE (120 h, time 5 day): 101.67 MEQ/L | CHOLESTEROL (120 h, time 5 day): 94.33 mg/dL | CREATINE PHOSPHOKINASE (120 h, time 5 day): 383.67 u/L | CREATININE (120 h, time 5 day): 0.27 mg/dL | GLUCOSE (120 h, time 5 day): 120.67 mg/dL | LACTATE DEHYDROGENASE (120 h, time 5 day): 380.33 u/L | LIPASE (120 h, time 5 day): 12 u/L | PHOSPHORUS (120 h, time 5 day): 12.13 mg/dL | POTASSIUM (120 h, time 5 day): 7.47 MEQ/L | SODIUM (120 h, time 5 day): 144.4 MEQ/L | TOTAL BILIRUBIN (120 h, time 5 day): 0.2 mg/dL | TOTAL PROTEIN (120 h, time 5 day): 6.23 G/DL | URIC ACID (120 h, time 5 day): 2.1 mg/dL
